Values joined by “and” are separate entries in the source; they are usually repeats but may differ in a detail not shown here. Equal entries are not always repeated.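 Test compounds were applied to cells in 96-well plates for 48 hours at 5 doses. GI50 is the concentration that inhibits growth by half. TGI denotes the concentration required for complete inhibition of growth.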
Legend:
Assay in all cases: growth of human tumour cells (NCI), 48 h
[1] = tested on: NCI-H226 lung
[2] = tested on: SF-295 CNS
[3] = tested on: MDA-MB-231 breast
[4] = tested on: MOLT-4 leukemia
[5] = tested on: MDA-MB-435
[6] = tested on: SNB-19 CNS
[7] = tested on: DMS 273 small cell lung
[8] = tested on: DMS 114 small cell lung
[9] = tested on: LOX IMVI melanoma
[10] = tested on: SR leukemia

SMILES	TGI [1]	TGI [2]	TGI [3]	TGI [4]	TGI [5]	TGI [6]	TGI [7]	TGI [8]	TGI [9]	TGI [10]	GI50 [3]	GI50 [5]	GI50 [6]	GI50 [2]	GI50 [7]	GI50 [8]	GI50 [10]
N#Cc1c(-c2ccc(Cl)cc2)c(-c2ccc(Cl)cc2)nn(CCOC(=O)CCC(=O)O)c1=O	1.42 µM	16.9 µM	28.6 µM	41.3 µM	0.193 µM	> 49.2 µM	14.7 µM	11.8 µM	> 84.3 µM	25.6 µM							
Cn1cnc([N+](=O)[O-])c1Sc1nc2cccnc2s1	36.5 µM	> 100 µM		23.6 µM		> 100 µM	57.4 µM	28.5 µM	60.5 µM	37.1 µM							
COc1ccc2cc3[n+](cc2c1OC)CCc1cc2c(cc1-3)OCO2	> 100 µM and 94.9 µM and 67.5 µM	> 100 µM and 147 µM	> 100 µM		25.8 µM and 27 µM and 40.5 µM	> 100 µM and > 77.2 µM and 145 µM	73.7 µM and 49.4 µM	> 64.8 µM and 76.7 µM	> 201 µM	> 100 µM and 71.5 µM and > 75.6 µM	15.9 µM	7.35 µM	0.831 µM				
Oc1ccc2c3c1OC1C(=NN=C4CCC5(O)C6Cc7ccc(O)c8c7C5(CCN6CC5CC5)C4O8)CCC4(O)C(C2)N(CC2CC2)CCC314 (configuration not stated)	> 100 µM	32.6 µM		> 74 µM		> 100 µM	63.9 µM	44.6 µM	39.1 µM	80.4 µM							
O=C1CCCC(=O)C1=C(O)CCCCCCCCCCc1ccccc1	96.9 µM	> 100 µM		> 100 µM		> 100 µM	> 100 µM	53.4 µM	> 100 µM	71.9 µM							
Cc1ccc(NC(=O)COC(=O)c2cccc3c(=O)c4ccccc4[nH]c23)cc1	96.7 µM	> 100 µM		> 100 µM		> 100 µM	94.9 µM	> 100 µM	60 µM	65.1 µM							
CCOC(=O)N[C@H]1CCc2cc(O)c(OC)c(OC)c2-c2ccc(SC)c(=O)cc21	1.25 µM	0.0995 µM		> 100 µM		> 100 µM	> 100 µM	0.473 µM	> 100 µM	> 100 µM							
C/C=C(\CCC1NCCc2c1[nH]c1ccccc21)[Si](C)(C)C (configuration not stated)	18.6 µM and 21.6 µM	17.5 µM and 5.52 µM	4.56 µM	13.8 µM and 8.98 µM	11.1 µM	30 µM and 22 µM	11.3 µM and 4.07 µM	10.8 µM and 3.51 µM	38.5 µM and 4.84 µM	18.4 µM and 8.42 µM			15.4 µM and 7.22 µM	7.13 µM and 2.32 µM	5.99 µM and 1.93 µM	5.76 µM and 1.83 µM	8.12 µM and 2.7 µM

From PubChem BioAssay (NCI)
